In patent US5968753A, “Positive and positive/negative cell selection mediated by peptide release” (Nexell Therapeutics, Inc., priority 1995, dated 1999):
One block for each molecule: values may come before it. Ends that are not written are not given here.

Legend:
561 antibody [1] = assay: Chemical reagents as enhancers of peptide-dependant release of CD34+ cells from the 561 antibody (FACS assay); assay type: cell-based
Protocol: The ability of chemical reagents to enhance peptide-dependant release of captured CD34+ cells from the 561 antibody was examined. […] Previous studies indicated a requirement for low pH (about pH4) for effective cell release. Since long-term viability of the low pH-released cells was not known, conditions which could alter the pH to a more neutral value (about pH5-7) were desirable. Reagents which were known to affect electrostatic and hydrogen bonding interactions of proteins were tested in addition to excluded-volume polymers.

561 antibody [2] = assay: KG1a or tHL60 cell-based FACS assay: release of prebound 561 antibody; conditions: for functional release activity: crude peptide
Protocol: Five peptides representing hexapeptides selected from biopannings were synthesized and tested for their ability to serve as release agents in the KG1a or tHL60 cell-based FACS assay.
HPLC-purified peptides 561C and D were tested in the cell-based KG1a FACS assay.
Functional release activity of purified 561D peptide at pH 4 and 6 was tested.
Functional release activity of purified 561C and 561D peptides at pH 4, 5, 6, 7, 8, and 9 was tested.
Functional release activity of crude 561A,B,C,D, M, P, Q, CDR2H, CDR2L, CDR3H, CDR3L, 34B, 34C,34D,34E and 34F peptides adjusted to pH 7 and pH unadjusted (^~ pH3.8-4.3) was tested.

anti-CD34 antibody, 9069 = assay: KG1a cell FACS assay: release by peptides of 9069 antibody bound to cells; assay type: cell-based, mouse
Protocol: These experiments were performed following a similar procedure to the binding experiments except that the anti-CD34 antibody, 9069, was incubated with KG1a cells first, followed by addition of peptide. The experimental outline is schematically shown below:
Anti-CD34 antibody, 9069 (0.1 microgram) was incubated with KG1a cells (10^6) for 30 minutes at room temperature (about 22° C.). Molar excesses of 10^5 to 10^6 times the amount of peptide to antibody were tested for the ability to displace the prebound antibody. Peptides were incubated with the antibody-cell complexes for 30 minutes at room temperature (approximately 22° C.). Remaining bound antibody was detected using the FITC-goat anti-mouse IgG reagent described in Example 3.
Analysis of the variant peptide, 9069Q2, was done in parallel with the 9069N peptide. This analysis provides quality control information on reagents including the antibody, 9069, and the cells, KG1a. FACScan assays included a negative control of KG1a cells alone and positive control samples of KG1a cells with the 9069 antibody bound and detected with a secondary antibody, goat-anti-mouse IgG-FITC.

[3] = test system: positively selected CD34+ cells; assay: Culture of positively selected CD34+ cells with cytokines for 12 days; assay type: cell-based, human; conditions: released cells of first experiment
Protocol: The purity of the positively selected CD34+ cells was greater than 90% for both the chymopapain and peptide released cells. In a first experiment, the peptide release method yielded 14×10^6 cells, while the chymopapain release method yielded 20×10^6 cells. In a second experiment, the peptide release method yielded 19×10^6 cells, while the chymopapain release method yielded 22×10^6 cells. The positively selected CD34+ cells from the first experiment were grown in culture with cytokines for 12 days.

CD34+ cells = assay: CD34+ cell isolation from mobilized peripheral blood on automated cell separation apparatus; assay type: cell-based, human; conditions: 25 mg of peptide 9069N or chymopapain control
Protocol: CD34+ cells were also isolated from human mobilized peripheral blood using the automated cell separation apparatus of co-pending U.S. patent application Ser. No. 08/212,479, and the method essentially as described in co-pending U.S. patent application Ser. No. 08/212,616. Both Ser. No. 08/212,479 and Ser. No. 08/212,616 are herein expressly incorporated by reference. Chymopapain was used as the control releasing agent, and 25 mg of the peptide 9069N (Table 11) was used as the test releasing agent.

9069 antibody = assay: Stem cell selection with 9069 antibody and sheep-anti-mouse beads, release by peptide or chymopapain; assay type: cell-based; conditions: chymopapain release
[4] = Solubilization of peptides in DPBS plus 1% HSA; assay type: physicochemical; conditions: Dulbecco's phosphate buffered saline (DPBS) plus 1% HSA
Protocol: 9079A-G peptides were solubilized in Dulbecco's phosphate buffered saline (DPBS) plus 1% HSA. The 9079A-G peptides were tested in the FACScan assay using 10 6 KG1a cells bound with 0.05 ug of the 9079 antibody.

[5] = Table 7, mobilized peripheral blood (5.86 % CD34)
[6] = Table 8, mobilized peripheral blood (1.05 % CD34)
[7] = Table 9, bone marrow sample (3.66 % CD34)
[8] = Table 10, mobilized peripheral blood (0.68 % CD34)

- solubility [4]: solubilized
Molecule: NLQGEFKD [9079D, NLQGEF-KD]

- solubility [4]: solubilized
Molecule: PGSPLGKD [9079A, PGSPLG-KD]

- solubility [4]: insoluble
Molecule: RSFYYRD [9079E, RSFYYR-D]

- solubility [4]: solubilized
Molecule: YSRLGFKD [9079B, YSRLGF-KD]

Further lines, the molecule ahead of its results:

Molecule: [Cl-].[Cl-].[Mg+2] [magnesium chlordie, magnesium chloride]
- enhancement of peptide mediated release of CD34+ selected cells (561 antibody [1]): Less dramatic results

Molecule: CC(=O)O [sodium acetate]
- enhancement of peptide mediated release of CD34+ selected cells (561 antibody [1]): significant activity as an enhancement reagent

Molecule: A C K W C R (ACKWCR) [561M]
- release of 561 antibody prebound to KG1a or tHL60 cells (561 antibody [2]; KG1a or tHL60 cells): able to release 561 antibody prebound to KG1a or tHL60 cells
- functional release activity (561 antibody [2]; pH 7): none of these peptides showed release activity
- functional release activity (561 antibody [2]; pH unadjusted (around pH 3.8-4.3)): showed functional release activity
- release activity (561 antibody [2]; low pH (~4)): showed significant release activity
- release activity (561 antibody [2]; pH 6 or pH 7): did not show release activity

Molecule: ADGA-NGGYFP-GAKD [9069H']
- Competition % (anti-CD34 antibody, 9069; Table 11, 9069 prebound to KG1a cells): 75%
- release activity (anti-CD34 antibody, 9069; Table 13, yes/no): yes

Molecule: Chymopapain
- expansion in cell number [3]: 68 fold
- cells yielded by release method (CD34+ cells; first experiment): 20×10^6 cells
- purity of the positively selected CD34+ cells (CD34+ cells; mobilized peripheral blood): greater than 90%
- cells yielded by release method (CD34+ cells; second experiment): 22×10^6 cells
- % CD34 CELLS Negative Fraction (9069 antibody; [5]): 2.5%
- % CD34 CELLS Positive Fraction (9069 antibody; [5]): 94%
- % Capture (9069 antibody; [5]): 62%
- % Yield (9069 antibody; [5]): 65.9%
- % CD34 CELLS Negative Fraction (9069 antibody; [6]): 0.16%
- % CD34 CELLS Positive Fraction (9069 antibody; [6]): 90.1%
- % Capture (9069 antibody; [6]): 86.9%
- % Yield (9069 antibody; [6]): 73.4%
- % CD34 CELLS Negative Fraction (9069 antibody; [7]): 0.34%
- % CD34 CELLS Positive Fraction (9069 antibody; [7]): 92.1%
- % Capture (9069 antibody; [7]): 91.8%
- % Yield (9069 antibody; [7]): 79.9%
- % CD34 CELLS Negative Fraction (9069 antibody; [8]): 0.12%
- % CD34 CELLS Positive Fraction (9069 antibody; [8]): 79.73%
- % Capture (9069 antibody; [8]): 86.7%
- % Yield (9069 antibody; [8]): 68%

Molecule: IQEFGVKD [9079F, IQEFGV-KD]
- solubility [4]: solubilized

Molecule: KDVYSLWPKD [9079H, KD-VYSLWP-KD]
- solubility [4]: solubilized

Molecule: QYTQPKD [9079C, QYTQPK-D]
- solubility [4]: solubilized
